PubChem BioAssay AID1745844 (Carcinogenic Potency Database (CPDB), 2022)
The source made the active and inactive calls. No rule for the calls is given here.

System: rodent lifetime carcinogenesis bioassay, tumor incidence TD50
Assay: carcinogenic potency in animals, long-term in vivo studies, CPDB compilation (AID 1745844)
Details: for TD50: in feed; for carcinogen call: strain Slc-Wistar, by gavage, lesion: one or several types, types not named, dosed 52 weeks, study length 52 weeks

Question: Which results are given for `Nc1ccc(N)c2c1C(=O)c1c(N)ccc(N)c1C2=O`?
Answer: TD50 (mouse, strain B6C3F1, females, site: liver, lesion: hepatocellular adenoma, dosed 103 weeks, study length 106 weeks): 150 mg/kg/day (inactive); TD50 (mouse, strain B6C3F1, females, site: lung, lesion: alveolar/bronchiolar adenoma + alveolar/bronchiolar carcinoma, dosed 103 weeks, study length 106 weeks): 9310 mg/kg/day; TD50 (mouse, strain B6C3F1, males, site: any site (literature study), lesion: several types, types named in the paper, dosed 104 weeks, study length 105 weeks): 1290 mg/kg/day; TD50 (mouse, strain B6C3F1, males, site: liver, lesion: hepatocellular adenoma + hepatocellular carcinoma + neoplastic nodule, dosed 104 weeks, study length 105 weeks): 534 mg/kg/day; TD50 (mouse, strain B6C3F1, males, site: liver, lesion: hepatocellular adenoma + hepatocellular carcinoma, dosed 104 weeks, study length 105 weeks): 534 mg/kg/day; TD50 (mouse, strain B6C3F1, males, site: lung, lesion: alveolar/bronchiolar adenoma + alveolar/bronchiolar carcinoma, dosed 104 weeks, study length 105 weeks): 701 mg/kg/day; TD50 (mouse, strain B6C3F1, males, site: lung, lesion: alveolar/bronchiolar adenoma, dosed 104 weeks, study length 105 weeks): 925 mg/kg/day; TD50 (rat, strain Fischer 344, females, site: any site (literature study), lesion: several types, types named in the paper, dosed 103 weeks, study length 104 weeks): 130 mg/kg/day; TD50 (rat, strain Fischer 344, females, site: pancreatic islets, lesion: islet-cell carcinoma, dosed 103 weeks, study length 104 weeks): 291 mg/kg/day; TD50 (rat, strain Fischer 344, females, site: pituitary gland + pancreatic islets, lesion: carcinoma, NOS + islet-cell carcinoma, dosed 103 weeks, study length 104 weeks): 323 mg/kg/day; TD50 (rat, strain Fischer 344, females, site: urinary bladder, lesion: leiomyoma, dosed 103 weeks, study length 104 weeks): 1540 mg/kg/day; TD50 (rat, strain Fischer 344, females, site: urinary bladder, lesion: leiomyosarcoma + leiomyoma + squamous-cell carcinoma + squamous-cell papilloma + transitional-cell carcinoma + transitional-cell p, dosed 103 weeks, study length 104 weeks): 131 mg/kg/day; TD50 (rat, strain Fischer 344, females, site: urinary bladder, lesion: leiomyosarcoma + leiomyoma, dosed 103 weeks, study length 104 weeks): 250 mg/kg/day; TD50 (rat, strain Fischer 344, females, site: urinary bladder, lesion: leiomyosarcoma, dosed 103 weeks, study length 104 weeks): 294 mg/kg/day; TD50 (rat, strain Fischer 344, females, site: urinary bladder, lesion: squamous-cell carcinoma + squamous-cell papilloma, dosed 103 weeks, study length 104 weeks): 664 mg/kg/day; TD50 (rat, strain Fischer 344, females, site: urinary bladder, lesion: squamous-cell carcinoma, dosed 103 weeks, study length 104 weeks): 1580 mg/kg/day; TD50 (rat, strain Fischer 344, females, site: urinary bladder, lesion: squamous-cell papilloma, dosed 103 weeks, study length 104 weeks): 1020 mg/kg/day; TD50 (rat, strain Fischer 344, females, site: urinary bladder, lesion: transitional-cell carcinoma + transitional-cell papilloma, dosed 103 weeks, study length 104 weeks): 198 mg/kg/day; TD50 (rat, strain Fischer 344, females, site: urinary bladder, lesion: transitional-cell carcinoma, dosed 103 weeks, study length 104 weeks): 307 mg/kg/day; TD50 (rat, strain Fischer 344, females, site: urinary bladder, lesion: transitional-cell papilloma, dosed 103 weeks, study length 104 weeks): 317 mg/kg/day; TD50 (rat, strain Fischer 344, males, site: any site (literature study), lesion: several types, types named in the paper, dosed 103 weeks, study length 104 weeks): 39.3 mg/kg/day; TD50 (rat, strain Fischer 344, males, site: pancreatic islets, lesion: islet-cell adenoma + islet-cell carcinoma, dosed 103 weeks, study length 104 weeks): 414 mg/kg/day; TD50 (rat, strain Fischer 344, males, site: pancreatic islets, lesion: islet-cell adenoma, dosed 103 weeks, study length 104 weeks): 810 mg/kg/day; TD50 (rat, strain Fischer 344, males, site: subcutaneous tissue, lesion: sarcoma, NOS, dosed 103 weeks, study length 104 weeks): 1830 mg/kg/day; TD50 (rat, strain Fischer 344, males, site: testis, lesion: interstitial-cell tumor, dosed 103 weeks, study length 104 weeks): 100 mg/kg/day; TD50 (rat, strain Fischer 344, males, site: thyroid gland, lesion: c-cell adenoma + c-cell carcinoma, dosed 103 weeks, study length 104 weeks): 474 mg/kg/day; TD50 (rat, strain Fischer 344, males, site: thyroid gland, lesion: c-cell adenoma, dosed 103 weeks, study length 104 weeks): 529 mg/kg/day; TD50 (rat, strain Fischer 344, males, site: urinary bladder, lesion: leiomyosarcoma + leiomyoma + squamous-cell carcinoma + squamous-cell papilloma + transitional-cell carcinoma + transitional-cell p, dosed 103 weeks, study length 104 weeks): 89.3 mg/kg/day; TD50 (rat, strain Fischer 344, males, site: urinary bladder, lesion: leiomyosarcoma + leiomyoma, dosed 103 weeks, study length 104 weeks): 129 mg/kg/day; TD50 (rat, strain Fischer 344, males, site: urinary bladder, lesion: leiomyosarcoma, dosed 103 weeks, study length 104 weeks): 131 mg/kg/day; TD50 (rat, strain Fischer 344, males, site: urinary bladder, lesion: squamous-cell carcinoma + squamous-cell papilloma, dosed 103 weeks, study length 104 weeks): 803 mg/kg/day; TD50 (rat, strain Fischer 344, males, site: urinary bladder, lesion: squamous-cell papilloma, dosed 103 weeks, study length 104 weeks): 1260 mg/kg/day; TD50 (rat, strain Fischer 344, males, site: urinary bladder, lesion: transitional-cell carcinoma + transitional-cell papilloma, dosed 103 weeks, study length 104 weeks): 245 mg/kg/day; TD50 (rat, strain Fischer 344, males, site: urinary bladder, lesion: transitional-cell carcinoma, dosed 103 weeks, study length 104 weeks): 506 mg/kg/day; TD50 (rat, strain Fischer 344, males, site: urinary bladder, lesion: transitional-cell papilloma, dosed 103 weeks, study length 104 weeks): 370 mg/kg/day

Question: How did the carcinogen call (rat, females, site: liver) turn out when `COc1ccccc1N1CCN(CCCNc2cc(=O)n(C)c(=O)n2C)CC1` was run?
Answer: negative (inactive)

Question: And the carcinogen call (rat, males, site: liver)?
Answer: negative (inactive)
